Like-named read-outs stand apart in the source and are kept apart here.

For test [1], the system named is convulsions induced by AMPA. In words: Anticonvulsant action induced by AMPA. The conditions noted are these: 25 mg/kg orally, male ddy mice; AMPA continuously injected into lateral ventricle 30 minutes or 1 hour after. It counts as in vivo, mice of ddy strain. On the procedure: A test compound was suspended in a 0.5% methyl cellulose solution or in sesame oil and was orally administered (25 mg/kg) to male mice of ddy strain. After 30 minutes or 1 hour from the oral administration, AMPA was continuously injected ([…]/5 μl/minute/mouse) into lateral ventricle to induce the convulsions. The effect was judged by a time-extending action until the convulsion takes place by a continuous injection of AMPA.

Test [2] has as its system experimental autoimmune encephalomyelitis. The test is described as follows: Experimental autoimmune encephalomyelitis model. The following applies: p.o. 5, 10 and 20 mg/kg, 10-16 days post immunisation, female Lewis rats, versus vehicle. In kind it is in vivo. On the procedure:
Female Lewis rats (205±10 g) obtained from Charles River, Kent UK, were housed in pairs under environmentally controlled conditions (6:00 a.m.-6:00 p.m. light/dark cycle; 22-24° C.; 45-55% humidity) and allowed free access to food and water. Experimental groups consisted of 9-12 animals. Rats were immunised in each hind foot with 20-50 μl of inoculum containing 50 μg guinea pig myelin basic protein (MBP; final concentration 2 mg/ml), emulsified in Freund's complete adjuvant (CFA; Sigma, UK) containing Mycobacterium tuberculosis H37Ra (final concentration 5.5 mg/ml; Difco Laboratories, UK). Animals were weighed and monitored daily and clinical disease scored as (O) no clinical signs; (1) flaccid tail and weight loss; (2) hind limb hypotonia with further weight loss; (3) complete hind limb paralysis; (4) paraplegia and (5) death. […] During the period of compound administration (10-16 days post immunisation; dpi) animals were scored 15 h after injection of vehicle or compound to avoid any acute effect of treatment on disease score. Compounds were dissolved/suspended in 0.5% methyl cellulose using a hand held Polytron homogeniser (PT1200; 2 min). Rats were dosed p.o. with either methyl cellulose vehicle (2.5 ml/kg) or compound at 5, 10 and 20 mg/kg. Results: the compound of the invention is improved in view of experimental autoimmune encephalomyelitis.

Test [3] deals with AMPA receptor.
Where [4] appears, read: Table 1, primary culture of rat embryo cerebral cortex nerve cells, 2 μM AMPA, 1 μM MK-801.
The mark [5] stands for this setting: Table 2, suppression of AMPA-induced calcium influx into nerve cells.
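Wherever IC50 is given: primary rat embryonic cortical neurons grown on an astrocyte layer in 96-well plates, used after at least 8 to 10 days in culture, Fura2-AM fluorescence ratio at 340/380 nm excitation.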

Consider `N#Cc1ccccc1-c1cc(-c2ccccn2)cn(-c2ccccc2)c1=O` [Example 7, 3-(2-Cyanophenyl)-5-(2-pyridyl)-1-phenyl-1,2-dihydropyridin-2-one], for which, in test [1], the “anticonvulsant action (time-extending action until the convulsion takes place)” value (“anticonvulsant action” below) was “significant anticonvulsant action”. In addition, the “effect on experimental autoimmune encephalomyelitis (clinical disease score)” value (shortened to “effect”) in test [2] is “superior effect to the vehicle-administered group”. This compound yielded an IC50 in test [3] (setting [4]) of 100 nM.

`N#Cc1ncccc1-c1cc(-c2ncccn2)cn(-c2ccccc2)c1=O` [Example 264, 3-(2-Cyanopyridin-3-yl)-1-phenyl-5-(2-pyrimidinyl)-1,2-dihydropyridin-2-one]: the “anticonvulsant action” value in test [1] was “significant anticonvulsant action”. For the same compound, the “effect” value in test [2] is listed as “superior effect to the vehicle-administered group”. Also, the IC50 in test [3] (setting [5]) came to 50 nM.

On to `N#Cc1ccccc1-c1cc(-c2ccccn2)cn(-c2cccnc2)c1=O` [Example 32, 3-(2-Cyanophenyl)-5-(2-pyridyl)-1-(3-pyridyl)-1,2-dihydropyridin-2-one], for which, in test [1], the “anticonvulsant action” value is on record as “significant anticonvulsant action”. The “effect” value in test [2] is recorded as “superior effect to the vehicle-administered group”. This compound came in with an IC50 in test [3] (setting [4]) of 100 nM.

Consider `O=c1c(-c2cccnc2F)cc(-c2ncccn2)cn1-c1ccccc1` [Example 262, 3-(2-Fuluoropyridin-3-yl)-1-phenyl-5-(2-pyrimidinyl)-1,2-dihydropyridin-2-one], for which the “anticonvulsant action” value in test [1] is on record as “significant anticonvulsant action”. For the same compound, in test [2], the “effect” value is listed as “superior effect to the vehicle-administered group”. Besides, the IC50 in test [3] (setting [5]) amounted to 300 nM.

Regarding `O=c1c(-c2cccnc2F)cc(-c2ccccn2)cn1-c1ccccc1` [Example 76, 3-(2-Fluoro-3-pyridyl)-5-(2-pyridyl)-1-phenyl-1,2-dihydropyridin-2-one], in test [1], the “anticonvulsant action” value is given as “significant anticonvulsant action”. In addition, in test [2], the “effect” value is listed as “superior effect to the vehicle-administered group”. Further, inhibition in test [3] (setting [4]) was half-maximal at 100 nM (IC50).

For the compound `O=c1c(-c2cccnc2Cl)cc(-c2ccccn2)cn1-c1ccccc1` [Example 4, 3-(2-Chloro-3-pyridyl)-5-(2-pyridyl)-1-phenyl-1,2-dihydropyridin-2-one], the “anticonvulsant action” value in test [1] was “significant anticonvulsant action”. Also, the midpoint of inhibition in test [3] (setting [4]), the IC50, lay at 100 nM.

`N#Cc1ccccc1-c1cc(-c2ccccn2)cn(-c2cccc(N)c2)c1=O` [Example 9, 3-(2-Cyanophenyl)-5-(2-pyridyl)-1-(3-aminophenyl)-1,2-dihydropyridin-2-one]: the “anticonvulsant action” value in test [1] is on record as “significant anticonvulsant action”. Also, the midpoint of inhibition in test [3] (setting [4]), the IC50, lay at 30 nM.

For `O=c1c(-c2ccccc2)cc(-c2ccccn2)cn1-c1ccccc1` [Example 61, 3-Phenyl-5-(2-pyridyl)-1-phenyl-1,2-dihydropyridin-2-one], the “anticonvulsant action” value in test [1] is given as “significant anticonvulsant action”. In test [3] (setting [4]), this compound had an IC50 of 200 nM.

`N#Cc1ccccc1-c1cc(-c2cnccn2)cn(-c2ccccc2)c1=O` [Example 199, 3-(2-Cyanophenyl)-1-phenyl-5-(2-pyrazyl)-1,2-dihydropyridin-2-one]: the “anticonvulsant action” value in test [1] is listed as “significant anticonvulsant action”. For the same compound, in test [3] (setting [5]), the IC50 worked out at 700 nM.

For `N#Cc1ccccc1-c1cc(-c2ccccc2)cn(-c2cccnc2)c1=O` [Example 47, 3-(2-Cyanophenyl)-5-phenyl-1-(3-pyridyl)-1,2-dihydropyridin-2-one], the “anticonvulsant action” value in test [1] was “significant anticonvulsant action”. Besides, the IC50 in test [3] (setting [4]) is 600 nM.

Turning to `N#Cc1ccccc1-c1cc(-c2ccccc2)cn(-c2ccccc2)c1=O` [Example 41, 3-(2-Cyanophenyl)-1,5-diphenyl-1,2-dihydropyridin-2-one], the “anticonvulsant action” value in test [1] is on record as “significant anticonvulsant action”. This compound also came in with an IC50 in test [3] (setting [4]) of 80 nM.

As usually defined, the IC50 is the concentration needed to halve the response being measured.

The record behind these values is patent US6949571B2, “1,2-dihydropyridine compounds, process for preparation of the same and use thereof” (Eisai Co., Ltd., priority 2000, dated 2005).
